Source: patent publication US8981106B2, “Pyrimidinecarboxamides as CXCR2 modulators” (Syntrix Biosystems, Inc., priority 2009, dated 2015)
Entries after “also recorded” stand apart in the source; their conditions may differ. Like-named read-outs stand apart in the source and are kept apart here. Each block holds one compound with its values, some of them ahead of it.

Columns and labels:
[1] = system: neutrophil influx; assay: Murine air pouch model of neutrophil chemotaxis (p.o.); type: in vivo, male CD-1 mice; conditions: for total neutrophil counts in the blood: high doses, compared to control animals; for neutrophil influx / neutrophil influx at high oral dose: p.o.
Protocol: Compounds 1 (SX-517) and 2 (SX-576) were also assayed in an in vivo air-pouch model of inflammation. SX-517 and SX-576 were able to attenuate neutrophil influx in the air-pouch model by about 50% at an oral dose of 0.2 and 0.05 mg/kg, respectively. […] More specifically, the procedure was performed by forming an air pouch on the backs of male CD-1 mice via the subcutaneous injection of air (2 mL). The next day, an additional subcutaneous injection of air (1.5 mL) was performed to reinflate the air pouch. The mice were given either vehicle control (Labrasol®) or test compound solubilized in Labrasol® via oral gavage. After 3 hours, either sterile phosphate buffered saline (PBS, 1 ml) or 2% carrageenan in sterile PBS (1 mL) was injected into the air pouch. After 4 hours, the mice were sedated with ketamine, and sacrificed by cervical dislocation. The exudate in the air pouch was collected by syringe, with an additional 2 mL wash with sterile PBS. The neutrophils were stained with trypan blue and counted on a hemocytometer under 20× magnification.

[2] = target: T1, CXCR2 (Homo sapiens (Human), UniProt P25025); assay: Inhibition of GROα-mediated intracellular calcium release in human neutrophils (FLIPR-3 Ca2+ mobilization); type: cell-based
Target sequence in this assay (P25025 whole entry): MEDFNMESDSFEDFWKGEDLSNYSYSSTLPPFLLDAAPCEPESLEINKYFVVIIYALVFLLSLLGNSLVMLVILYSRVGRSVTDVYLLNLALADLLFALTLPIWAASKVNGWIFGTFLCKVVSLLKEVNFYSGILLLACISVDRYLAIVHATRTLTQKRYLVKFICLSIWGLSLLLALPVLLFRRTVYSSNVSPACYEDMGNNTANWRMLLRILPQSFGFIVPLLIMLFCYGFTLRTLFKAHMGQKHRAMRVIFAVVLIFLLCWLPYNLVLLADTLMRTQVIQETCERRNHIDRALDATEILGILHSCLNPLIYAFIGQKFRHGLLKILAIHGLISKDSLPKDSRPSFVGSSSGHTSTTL

[3] = Crossover pharmacokinetic experiment in Beagle dogs; type: in vivo
Protocol: In this study, male Beagle dogs (n=5) were dosed intravenously on study day 1 with SX-576 in dimethylformamide/PEG400/saline (40:40:20) at a dose level of 5 mg/kg and a dose volume of 0.5 mL/kg. Blood samples were taken predose, and at time points 30, 60, 90, 120, 180, 360, 540 and 720 minutes. The blood was collected in tubes containing K2EDTA as an anticoagulant, and the tubes were centrifuged and the plasma fractions collected and frozen. After a one-week washout period, the same Beagle dogs were dosed orally with SX-576 in lipid based excipient Gelucire® 44/14 (Gattefosse) at a dose level of 5 mg/kg. Blood samples were then taken and plasma fractions collected as previously described. Prior to analysis, the plasma samples were thawed and diluted 1:3 into acetonitrile containing 1 μM of compound 153 as an internal standard. The resulting samples were centrifuged and the supernatant analyzed by LC-MS monitoring in multiple reaction monitoring mode. The samples were run concomitantly with a calibration curve of SX-576 in the same internal standard solution.
The lipid based excipient Gelucire® 44/14 is a self-emulsifying drug delivery system (SEDDS) that is able to solubilize both SX-517 and SX-576 into aqueous solutions via micellular formation. […] Therefore, lipid-based emulsifiers are important excipients for the oral delivery of SX-576.

[4] = Aqueous solubility; type: physicochemical
[5] = target: T1, CXCR2; assay: 125I-IL-8 radioligand binding inhibition; conditions: concentrations up to 10 μM
Excerpt: In vitro experiments, in addition to those measuring calcium release from human PMNs, provided evidence that the mechanism of action of Compounds 1 and 2 are most consistent with an allosteric (non-competitive) mode of action.
Target sequence in this assay (P25025 whole entry): as above

[6] = target: T1, CXCR2; assay: Agonist activity: intracellular calcium release in human neutrophils in the absence of GROα; type: cell-based; conditions: relative to the response to 25 nM GROα
Protocol: In Tables 1-5, the IC50 or EC50 values were determined using the following assay. This assay measures intracellular calcium release via fluorescence as an indication of CXCR2 receptor activation by the physiologic agonist GROα. The assay is a Ca^2+ mobilization assay that measures changes in intracellular Ca^2+ with a FlexStation II scanning fluorometer using a FLIPR-3 Calcium Assay Kit (Molecular Devices, Sunnyvale, Calif.). The procedure is as follows:
9. The maximum change in fluorescence, expressed in arbitrary units over baseline (Max-Min) was used to determine the GROα response. […] Therapeutic Activity
The maximum change in fluorescence, expressed in arbitrary units over baseline (Max-Min), was used to determine the GROα response.
Intracellular calcium release is a hallmark of CXCR2 activation by endogenous agonists, such as GROα and IL-8.
Target sequence in this assay (P25025 whole entry): as above

[7] = target: T1, CXCR2; assay: β-arrestin recruitment, β-galactosidase fragment complementation (DiscoveRx)
Target sequence in this assay (P25025 whole entry, species assumed): as the sequence (P25025 whole entry) above

[8] = system: neutrophil influx; assay: Murine air pouch model of neutrophil chemotaxis (i.v.); type: in vivo, male CD-1 mice; conditions: i.v., 0.02, 0.05, 0.2 and 1.0 mg/kg
Protocol: The procedure was performed by forming an air pouch on the backs of male CD-1 mice via the subcutaneous injection of air (2 mL). The next day, an additional subcutaneous injection of air (1.5 mL) was performed to reinflate the air pouch. The mice were given either vehicle control (dimethylformamide/PEG400/saline) or test compound solubilized in vehicle via tail vein injection. After 30 minutes, either sterile phosphate buffered saline (PBS, 1 ml) or 2% carrageenan in sterile PBS (1 mL) was injected into the air pouch. After 4 hours, the mice were sedated with ketamine, and sacrificed by cervical dislocation. The exudate in the air pouch was collected by syringe, with an additional 2 mL wash with sterile PBS. The neutrophils were stained with trypan blue and counted on a hemocytometer under 20× magnification.

[9] = target: T1, CXCR2; assay: Wash-resistant inhibition of GROα-mediated calcium response after inhibitor washout; type: cell-based; conditions: 0.4, 2, 10 μM, 30 min incubation, washed, up to 6 h after washout
Target sequence in this assay (P25025 whole entry): as above

[10] = system: pulmonary inflammation; assay: Ozone rat model of pulmonary inflammation; type: in vivo, Sprague-Dawley rats; conditions: 1 mg/kg i.v., 1 ppm ozone, BALF at 24 hours
Protocol: Activity in this model of pulmonary inflammation would provide direct relevance towards the treatment of a number of pulmonary inflammatory diseases, including chronic obstructive pulmonary disease (COPD) and bronchopulmonary dysplasia (BPD). In this experiment, Sprague-Dawley rats (n=4 per cohort) were dosed intravenously at t=0 with either vehicle (negative and positive groups, dimethylformamide/PEG400/saline, 40:40:20) or SX-576 (1 mg/kg). The rats were then placed in air (negative group) or 1 ppm ozone (positive and SX-576 groups) for 4 hours. The rats were dosed again at t=5 and 9 hours. The rats were then sacrificed at t=24 hours, and the bronchoalveolar lavage fluid (BALF) was collected. The cells were spun down, stained with Wright-Giemsa and counted. In the negative groups, no neutrophils were observed when stained. As a measure of lung leakage/damage, protein levels were quantified in BALF by Bradford protein assay analysis.

- IC50 ([2]; human neutrophils, 25 nM GROα, read-out: IC50): 38 ± 3 nM
- IC50 ([2]; in vitro, stated in the binding example, read-out: IC50 in vitro): ~60 nM
- plasma level when dosed without excipient [3]: undetected in plasma
- aqueous solubility [4]: poor aqueous solubility
- displacement of radiolabeled IL-8 binding to CXCR2 receptors [5]: unable to significantly displace
- Magnitude of Agonist Response (% of GROα only Control) [6]: did not show agonist activity
- activity on β-arrestin complexation with CXCR2 in the absence of IL8 [7]: inverse agonists
- inhibition of β-arrestin recruitment following CXCR2 activation with IL8 [7]: inhibited arrestin recruitment
Structure (SMILES): O=C(Nc1ccc(F)cc1)c1ccc(SCc2ccccc2B(O)O)nc1 [Compound 1, 6-(2-borono-2-yl-benzylsulfanyl)-N-(4-fluoro-phenyl)-nicotinamide]
- total neutrophil counts in the blood [1]: not significantly changed
- attenuation of neutrophil influx ([1]; oral dose 0.2 mg/kg): about 50%
- neutrophil influx ([1]; 0.005 and 0.2 (mg/kg)): decrease of neutrophil influx
- neutrophil influx at high oral dose ([1]; doses in excess of 10 mg/kg): increase in neutrophil influx

- bioavailability following oral administration ([3]; 5 mg/kg oral in Gelucire 44/14): improved the bioavailability
- plasma level when dosed without excipient [3]: undetected in plasma
- aqueous solubility [4]: poor aqueous solubility
- Magnitude of Agonist Response (% of GROα only Control) [6]: 100%
- activity on β-arrestin complexation with CXCR2 in the absence of IL8 [7]: inverse agonists
Structure (SMILES): O=C(Nc1ccc(F)cc1)c1ccc(SCc2cc(OC(F)(F)F)ccc2B(O)O)nc1 [Compound 2, 6-(2-boronic acid-5-trifluoromethoxy-benzylsulfanyl)-N-(4-fluoro-phenyl)-nicotinamide]
- total neutrophil counts in the blood [1]: not significantly changed
- attenuation of neutrophil influx ([1]; oral dose 0.05 mg/kg): about 50%
- neutrophil influx ([1]; 0.05 mg/kg): decrease of neutrophil influx
- neutrophil influx at high oral dose ([1]; doses in excess of 1 mg/kg): increase in neutrophil influx
- neutrophil influx [8]: significantly attenuate neutrophil influx
- wash-resistant inhibition of GROα mediated intracellular calcium release [9]: dose-dependent and wash-resistant inhibition
- influx of macrophages into the lungs [10]: significantly decreased
- influx of neutrophils into the lungs [10]: significantly decreased
- ozone-induced lung damage (protein levels in the BALF) [10]: protected against ozone-induced lung damage
- inhibition of β-arrestin recruitment following CXCR2 activation with IL8 ([7]; listed as SX-576): inhibited arrestin recruitment; also recorded: more potent inhibitor than SX-517, comparable to the diarylurea SB225002
